As a reminder, the LD50 is the dose at which mortality reaches 50%. As usually defined, the inhibition in vivo is how much of the control response was suppressed.

Read-outs that look alike come from different tables or passages of the source. A value given as a limit tells only on which side of the number the result lay.

Data set [1] is described as follows: orientative test for oral acute toxicity in female mice. The conditions noted are these: mouse, in vivo. As for the experimental part: (§1) As experimental models of inflammation, serving for testing the antiinflammatory activity, there were used the method of kaolin-induced edema of rat hind limb (Hillebrecht J.: Arzneim-Forsch. 9, p. 625, 1959). Kaolin edema of rat hind limb was induced by subplantar injection of 10% kaolin suspension dosed 0.1 ml per animal. The substances tested were administered once, one hour before the injection of kaolin, by gavage with the aid of a metallic gastric sound in the form of aqueous suspension with gum acacia added, in volumes of 1 ml/100 g body weight, equivalent to doses of 25 and 100 mg/kg. The edema of the right hind limb was measured volumetrically on a Volumometer Ugo Basile at hours 1; 1.5; 3; 4.5 and 6 after injection of kaolin. Statistical evaluation was always made in comparison with an untreated control group, and the efficacy of each compound was expressed in percent inhibition of inflammation. Experimental animals: female rats, Wistar strain, Konarovice breed, weighing 130-150 g, experimental groups of 6 animals each. Pelleted diet and drinking water were served ad libitum. This phase of limb edema induced by injection of kaolin suspension represents an acute phase of inflammatory reaction. In addition, orientative tests for oral acute toxicity were carried out with the compounds tested in female mice, S strain, Konarovice breed, weighing 16-20 g. Each compound was administered once by gavage, dosed 1 g/kg, in the form of aqueous suspensions with gum acacia added. Experimental groups of 5 animals each were employed. The deaths were checked for 1 week after administration.

For data set [2], the system named is kaolin-induced edema of rat hind limb. Nature of the data set: kaolin-induced edema of rat hind limb (antiinflammatory activity, gavage). It is filed as in vivo, rat (Wistar strain, Konarovice breed, female). The following applies: po, 1 h, by gavage, once, one hour before kaolin injection, vs untreated control group, footnotes mark + statistically significant, n not statistically significant. As for the experimental part:
as §1

The mark [3] stands for this setting: oral (gavage), single dose 1 g/kg, deaths checked for 1 week, read-out: LD50 oral mice.

Regarding `COc1ccc(COc2ccc(C(C)C(=O)O)cc2Cl)cc1Cl` (stereo not drawn) [α-[3-Chloro-4-(3'-chloro-4'-methoxybenzyloxy)phenyl] propionic acid, reference compound], in data set [1] (setting [3]), the LD50 at 168 h is less than 1000 mg/kg. For the compound `O=C(O)Cc1ccc(OCc2ccc(Cl)cc2)c(Cl)c1` [3-Chloro-4-(4'-chlorobenzyloxy) phenylacetic acid], the LD50 at 168 h in data set [1] (setting [3]) was more than 1000 mg/kg. In addition, in data set [2], the inhibition in vivo at 25 mg/kg was determined as 28%. Taken in the same sequence, the figures for `O=C(O)Cc1ccc(OCc2ccccc2)c(Cl)c1` [3-Chloro-4-benzyloxyphenylacetic acid, 3-chloro-4-benzyloxyphenylacetic acid] were more than 1000 mg/kg and 39%. Consider `CC(C)Oc1ccc(COc2ccc(C(C)C(=O)O)cc2Cl)cc1` (stereo not drawn) [α-[3-Chloro-4-(4'-isopropoxybenzyloxy)phenyl] propionic acid, reference compound], for which the LD50 at 168 h in data set [1] (setting [3]) is less than 1000 mg/kg. Take `COc1ccc(COc2ccc(CC(=O)O)cc2Cl)cc1Cl` [3-chloro-4-(3'-chloro-4'-methoxybenzyloxy) phenylacetic acid]: in data set [1] (setting [3]), the median lethal dose (LD50) at 168 h was more than 1000 mg/kg. Besides, the inhibition in vivo at 25 mg/kg in data set [2] came out at 17%. `CC(C(=O)O)c1ccc(OCc2ccc(Cl)cc2)c(Cl)c1` (stereo not drawn) [α-[3-Chloro-4-(4'-chlorobenzyloxy)-phenyl] propionic acid, reference compound] came in with an LD50 at 168 h in data set [1] (po) of more than 1000 mg/kg. Besides, the inhibition in vivo at 25 mg/kg in data set [2] came out at 25%. Take `CC(C)Oc1ccc(COc2ccc(CC(=O)O)cc2Cl)cc1` [3-chloro-4-(4'-isopropoxybenzyloxy) phenylacetic acid]: the LD50 at 168 h in data set [1] (setting [3]) is less than 1000 mg/kg.

Regarding `CC(C(=O)O)c1ccc(OCc2ccccc2)c(Cl)c1` (stereo not drawn) [α-(3-Chloro-4-benzyloxyphenyl)-propionic acid, reference compound], the LD50 at 168 h in data set [1] (setting [3]) was found to be 1000 mg/kg. Besides, the inhibition in vivo at 25 mg/kg in data set [2] amounted to 14%.

The values are drawn from patent US4221919A, “Antiinflammatory substituted phenylacetic acids” (SPOFA, United Pharmaceutical Works, priority 1974, dated 1980).
